Source: patent publication US11401257B2, “Solid forms of 2-(4-chlorophenyl)-N-((2-(2,6-dioxopiperidin-3-yl)-1-oxoisoindolin-5-yl)methyl)-2,2-difluoroacetamide, and their pharmaceutical compositions and uses” (Celgene Corporation, priority 2016, dated 2022)
Values after ≈ are worked out from the molar mass of the structure shown.

Assays:
Type in all cases: physicochemical
[1] = Hygroscopicity by dynamic vapor sorption (DVS); conditions: for water uptake (DVS): relative humidity increased from about 0% to about 90% RH; for DVS water uptake: up to 90% RH
Description: Hygroscopicity was determined on a Surface Measurement Systems DVS. Typically a sample size of 5-20 mg was loaded into the DVS instrument sample pan and the sample was analyzed on a DVS automated sorption analyzer at room temperature. The relative humidity was increased from 0% to 90% RH at 10% RH step, then decreased in a similar manner to accomplish a full adsorption/desorption cycle.

[2] = Form conversion experiments (interconversion among solid forms); conditions: anhydrates of Compound 1
Description: Further form conversion experiments were performed to determine interconversion among solid forms.

physchem [3] = conditions: for solubility at 24 h: thermodynamic from solid
Description: Solubility of Form C in selected aqueous and organic solvents was determined by mixing solid with solvents at room temperature. […]

physchem [4] = conditions: water, thermodynamic from solid, Approximate Solubility
Description: In order to select the screening solvents and to determine the concentration range to be used in the screen, a quantitative solubility assessment was performed on Form B and Form C of Compound 1.

SMILES | water uptake (DVS) [1] | DVS water uptake [1] [wt % water] | thermodynamic stability among the crystal forms [2] | solubility (physchem [3]; 2 h) [µg/mL] | solubility at 24 h (physchem [3]; pH 4, aqueous buffer) [µg/mL] | solubility at 24 h (physchem [3]; pH 6.8, aqueous buffer) [µg/mL] | solubility (physchem [4]) [µg/mL]
O=C1CCC(N2Cc3cc(CNC(=O)C(F)(F)c4ccc(Cl)cc4)ccc3C2=O)C(=O)N1 (centres unmarked) [Form A, 2-(4-chlorophenyl)-N-((2-(2,6-dioxopiperidin-3-yl)-1-oxoisoindolin-5-yl)methyl)-2,2-difluoroacetamide] | about 1.2 % w/w | ~1.2 | – | – | – | – | –
O=C1CCC(N2Cc3cc(CNC(=O)C(F)(F)c4ccc(Cl)cc4)ccc3C2=O)C(=O)N1 (centres unmarked) [Form C, 2-(4-chlorophenyl)-N-((2-(2,6-dioxopiperidin-3-yl)-1-oxoisoindolin-5-yl)methyl)-2,2-difluoroacetamide] | about 0.6 % w/w | ~0.6 | most thermodynamically stable anhydrate | 843 (≈ 1830 µM) | 1 (≈ 2.17 µM) | 1 (≈ 2.17 µM) | –
O=C1CCC(N2Cc3cc(CNC(=O)C(F)(F)c4ccc(Cl)cc4)ccc3C2=O)C(=O)N1 (centres unmarked) [Form B, 2-(4-chlorophenyl)-N-((2-(2,6-dioxopiperidin-3-yl)-1-oxoisoindolin-5-yl)methyl)-2,2-difluoroacetamide] | about 1.4 % w/w | ~1.4 | – | – | – | – | < 1000
